From PMC12195615, “In Vitro and In Silico Assessments of Curcuminoids and Turmerones from Curcuma longa as Novel Inhibitors of Leishmania infantum Arginase” (Pharmaceuticals, 2025)
Converted amounts (≈) assume the structure as drawn. Where two headings read alike, the source gives them in different places. Marks after values point to notes of the source that are not given here.

Experiments:
L. major promastigotes [1] = system: L. major promastigotes; set-up: method as in PMID 10865470; conditions: cited from earlier work
[2] = target: recombinant arginase from L. infantum (LiARG) (Leishmania infantum, UniProt A4IB49); experiment: LiARG inhibition assay (urea quantification); assay type: biochemical
Description: The expression and purification of recombinant arginase from L. infantum (LiARG) were previously detailed by our group. LiARG inhibition was performed by incubating different concentrations (4.7 to 100 μg/mL) of the samples in the enzymatic reaction solution: 50 mM CHES buffer (pH 9.5) and 50 mM L-arginine. The enzymatic reaction was initiated by adding LiARG (10 μg/mL) and allowed to proceed for 5 min at 37 °C before being stopped on ice. Subsequently, enzymatic activity was assessed by measuring the conversion of L-arginine to urea using a commercial kit (Labtest UREA CE kit®, Lagoa Santa, MG, Brazil). The amount of urea produced in each reaction was determined spectrophotometrically at 600 nm, following its hydrolysis into ammonia and conversion into indophenol blue. […] From that, the IC50 was determined by regression analysis.

[3] = system: Leishmania amazonensis promastigotes; experiment: Anti-promastigote activity (resazurin), L. amazonensis; assay type: cell-based; conditions: 48 h
Description: (§1) Promastigote forms of Leishmania infantum (MHOM/BR/1974/PP75) and Leishmania amazonensis (IFLA/BR/1967/PH8) were cultured in complete Schneider’s Insect Medium (SIM, 10% FBS). […] Drug-free parasite cultures served as a positive control of viability. […] After 24 h of promastigote incubation, 100 μM resazurin was added, and the cells were cultured for an additional 24 h. At 48 h of the treatment, parasites were assessed fluorometrically (555 nm excitation and 585 nm emission) for viability using a microplate reader Spectra Max M2 (Molecular Devices, CA, USA). Dose–response curves were then generated, and the half-maximal inhibitory concentrations (IC50) for each treatment were determined through regression analysis.

[4] = system: Leishmania infantum promastigotes; experiment: Anti-promastigote activity (resazurin), L. infantum; assay type: cell-based; conditions: for IC50: Leishmania infantum; for L. infantum IC50 ± SE: promastigotes, resazurin
Description: as §1

[5] = system: intracellular L. infantum amastigotes; experiment: Inhibition of intracellular amastigotes in infected RAW 264.7 macrophages; assay type: cell-based, Leishmania infantum; conditions: for number of amastigotes per 100 infected macrophages: 20 μg/mL, 48 h, vs untreated control, p < 0.05; for IC50: Leishmania infantum
Description: (§2) After adhesion, the cells were incubated for 24 h in the presence of L. infantum promastigotes at a ratio of 10 parasites per macrophage at 35 °C in a 5% CO2 atmosphere. After the interaction period, the wells were washed with PBS to remove non-internalized promastigotes, and the infected macrophages were incubated for 24 h under the same conditions. […] Untreated infected macrophages served as a positive control for amastigote viability. After 48 h of treatment, the supernatant was collected, and the coverslips were stained with Panoptic. […] The IC50 was then calculated using dose–response curve regression analysis.

[6] = system: NO production by RAW 264.7 macrophages infected with L. infantum; experiment: NO production (Griess reaction) by L. infantum-infected macrophages; assay type: cell-based, murine; conditions: 48 h treatment, compared to untreated control
Description: as §2
The supernatant from L. infantum-infected macrophages, treated as described in Section 3.11, was collected to assess NO production using the Griess reaction. In short, 100 µL of the collected supernatants were transferred to 96-well microplates, followed by the addition of an equal volume of Griess reagent (0.5% sulfanilamide and 0.05% naphthylenediamine dihydrochloride in 5% phosphoric acid) to each well. The plates were then incubated at room temperature in the dark for 20 min. After incubation, the absorbance was measured at 570 nm.

[7] = system: sheep red blood cells (RBC); conditions: for hemolytic activity (CH50) RBC: sheep RBC, 1 h at 37 °C, mean ± SE
Description: Blood samples were washed four times with cold PBS to remove plasma, and a 4% (v/v) RBC suspension was prepared in the same buffer. […] After a 1 h incubation at 37 °C, the reaction was stopped by adding 200 µL of PBS. A positive hemolysis control was performed by adding 200 µL of distilled water to untreated cells. The microplates were then centrifuged (2000 rpm/5 min), and 200 µL of the supernatants were transferred to new 96-well microplates for spectrophotometric analysis at 540 nm (SpectraMax M2, Molecular Devices, CA, USA). The percentage of hemolysis for each treatment was calculated relative to the hemolysis control (100%), and the 50% hemolytic concentration (HC50) was determined through regression analysis of the dose–response curves.

mouse arginase = conditions: colorectal cancer model; cited from earlier work
L. major promastigotes [8] = conditions: 15 µM; cited from earlier work
[9] = system: promastigotes and axenic amastigotes of L. donovani; conditions: 15 µM; cited from earlier work
[10] = system: L. donovani promastigotes; conditions: read-out: IC50 against L. donovani promastigotes; cited from earlier work
intracellular amastigote = conditions: 20 µM, within 24 h of treatment; cited from earlier work
L. braziliensis = conditions: topical 1.5 mg/day, hamsters infected with L. braziliensis; cited from earlier work
[11] = Cytotoxicity assay (MTT), RAW 264.7; conditions: mouse, RAW 264.7 macrophage cells
Description: (§3) RAW 264.7 (murine macrophages) and VERO (normal African green monkey kidney epithelial cells) lines were obtained from Banco de Células do Rio de Janeiro (BCRJ, RJ, Brazil) under the codes 0212 and 0245, respectively. Both were cultured in complete DMEM medium (10% FBS, 100 U/mL penicillin, 100 µg/mL streptomycin, and 3 µg/mL Fungizone®) at 37 °C and 5% CO2 atmosphere. After reaching subconfluence, the cells were washed twice with cold phosphate saline buffer (PBS, pH 7.2), detached by trypsinization, and seeded into 96-well microplates (10^5 cells/100 μL). […] The cells were further incubated under the same conditions for another 48 h. Drug-free cells cultured in DMEM served as positive controls of viability. The concentration of the solvent (DMSO) was normalized in all wells (1%) of treatment and control. Cell viability was assessed using a colorimetric assay based on the reduction of tetrazolium salt [69].

J774.A.1 macrophages = system: J774.A.1 macrophages; set-up: method as in PMID 35325685; conditions: cited from earlier work
Pgp = conditions: affected the uptake of rhodamine-123 and digoxin; cited from earlier work
human arginase I = system: human arginase I; set-up: method as in PMID 37462864; conditions: cited from earlier work
[12] = system: VERO (normal African green monkey kidney epithelial cells); experiment: Cytotoxicity assay (MTT), VERO; assay type: cell-based; conditions: 48 h treatment, mean ± SE
Description: as §3

[13] = system: RAW 264.7 (murine macrophages); experiment: Cytotoxicity assay (MTT), RAW 264.7; conditions: 48 h treatment, MTT; mean ± SE
Description: as §3

COc1cc(/C=C/C(O)=C/C(=O)/C=C/c2ccc(O)cc2)ccc1O [compound 2, demethoxycurcumin]
IC50 against L. major promastigotes (L. major promastigotes [1]): 14.1 ± 4.8 µg/mL (≈ 41.7 µM)

COc1cc(/C=C/C(=O)CC(=O)/C=C/c2ccc(O)c(OC)c2)ccc1O [compound 1, curcumin]
IC50 [2]: 47.6 µM
IC50 ([3]; Leishmania amazonensis, read-out: L. amazonensis IC50 ± SE): 5.5 ± 0.45 µg/mL (≈ 14.9 µM)
IC50 ([4]; 48 h, read-out: L. infantum IC50 ± SE, promastigotes, 48 h, resazurin): 15 µg/mL
IC50 ([4]; read-out: IC50 against L. infantum promastigotes (molar), converted from 15.5 µg/mL): ~42 µM
L. infantum IC50 ± SE ([4]; 48 h, listed as Curcumin (1)): 15.5 ± 1.7 ^c µg/mL
number of amastigotes per 100 infected macrophages [5]: significantly reduced
IC50 ([5]; RAW264.7, 48 h, read-out: IC50 against intracellular L. infantum amastigotes): 13.6 µg/mL
IC50 ([5]; RAW264.7, converted from 13.6 µg/mL, read-out: IC50 against L. infantum intracellular amastigotes): ~36.9 µM
NO levels [6]: reduced NO levels at concentrations starting from 5 µg/mL
hemolytic activity (CH50) RBC [7]: >200 µg/mL
reduction of mouse arginase activity (mouse arginase): 73%
IC50 against L. major promastigotes (L. major promastigotes [1]): 7.8 ± 3.3 µg/mL (≈ 21.2 µM)
growth of L. major promastigotes (L. major promastigotes [8]): did not inhibit the growth
growth of promastigotes and axenic amastigotes of L. donovani [9]: did not inhibit the growth
IC50 [10]: 25 µM
reduction of intracellular amastigote load (intracellular amastigote): 85%
therapeutic response (L. braziliensis): 83%
CC50 at 48 h [11]: 69.8 ± 2.8 µg/mL (≈ 189 µM)

CC(C)=CC(=O)C[C@H](C)c1ccc(C)cc1 [compound 4, ar-turmerone]
CC50 J774.A.1 macrophages (J774.A.1 macrophages): 720.06 µg/mL (≈ 3330 µM)

CC(C)=CC(=O)C[C@H](C)C1C=CC(C)=CC1 (stereo partly drawn) [compound 5, α-turmerone]
Pgp inhibition (Pgp): Pgp inhibitor

CC(C)C1=C[C@H]2[C@@H](CC[C@]2(C)O)[C@](C)(O)CC1 [alismoxide]
inhibitory activity against human arginase I (human arginase I): showed inhibitory activity

O.O.O.O=C([O-])C(O)C(O)C(=O)[O-].O=C([O-])C(O)C(O)C(=O)[O-].[K+].[K+].[Sb].[Sb] (stereo not drawn) [PAT, potassium antimony(III) tartrate hydrate, reference compound]
Cytotoxicity (CC50) VERO [12]: 23.9 ± 1.5 ^b μg/mL
L. amazonensis IC50 ± SE ([3]; promastigotes, resazurin): 11.9 ± 3.1 ^c,d µg/mL
L. infantum IC50 ± SE ([4]; 48 h): <6.25 µg/mL
number of amastigotes per 100 infected macrophages [5]: significantly reduced
IC50 against intracellular L. infantum amastigotes ([5]; infected RAW 264.7, 48 h treatment): 18.9 ± 4.06 µg/mL
NO levels [6]: increased NO levels at 10 and 20 µg/mL
hemolytic potential ([7]; at the highest concentration tested (100 μg/mL)): did not show hemolytic potential
hemolytic activity (CH50) RBC [7]: >100 µg/mL
Cytotoxicity (CC50) RAW 264.7 [13]: 30.8 ± 0.73 ^b μg/mL

O=c1c(O)c(-c2ccc(O)c(O)c2)oc2cc(O)cc(O)c12 [Quercetin (7), Quercetin, reference compound]
IC50 [2]: < 20.7 µM

O=C(/C=C/c1ccc(O)cc1)CC(=O)/C=C/c1ccc(O)cc1 [compound 3, bisdemethoxycurcumin]
IC50 against L. major promastigotes (L. major promastigotes [1]): 21.5 ± 6.9 µg/mL (≈ 69.7 µM)
